For one experiment, the system named is P. mirabilis. In words: MIC, agent alone (broth microdilution). It is filed as cell-based, Proteus mirabilis. The conditions noted are these: footnote to Table 12; P. mirabilis 80267 and 81569. The text has this:
Organisms included Gram-positive cocci (2 strains of each): Methicillin-susceptible Staphylococcus aureus (MSSA), community-associated (CA) and healthcare-associated (HA) methicillin-resistant Staphylococcus aureus (MRSA), vancomycin-intermediate Staphylococcus aureus (VISA), vancomycin-resistant Staphylococcus aureus (VRSA), methicillin-resistant Staphylococcus epidermidis (MRSE), Streptococcus pyogenes, Streptococcus agalactiae, Streptococcus pneumoniae, Enterococcus faecalis, Enterococcus faecium and vancomycin-resistant enterococcus (VRE). Gram-negative bacilli tested (2 strains of each) included: E. coli, Pseudomonas aeruginosa, Klebsiella pneumoniae, K. oxytoca, Enterobacter cloacae, P. mirabilis and Stenotrophomonas maltophilia. MIC testing, following two subcultures from frozen stock were determined by the CLSI 2005 approved broth microdilution method.
(In general: In broth dilution the organism is exposed to a series of concentrations in liquid medium.)

Experiment [1] has as its system MRSA, VISA, VRSA and E. coli. Description: MIC, agent alone, panel statement. It is filed as cell-based. The following applies: CA-MRSA and HA-MRSA (checkerboard strains of Table 11). How it is done: VISA (strains 92, 95 and 96), VRSA (strains 105 and 106) and E. coli (strain 69717) isolates were also tested. One MSSA was used as a control. All MICs were assessed using CLSI guidelines. Also assessed was the activity of cefazolin, ceftriazone, meropenem, and a piperacillin/tazobactam combination antibiotic. Minimum inhibitory concentration (MIC) is the lowest concentration of an antimicrobial that will inhibit the visible growth of a microorganism after incubation.
Antimicrobial Susceptibility Testing: A custom designed panel of antimicrobials was created. The panel included: PEP35, penicillin, piperacillin/tazobactam, cefazolin, ceftriaxone, meropenem, clarithromycin, clindamycin, gentamicin, amikacin, vancomycin, ciprofloxacin, levofloxacin, moxifloxacin, linezolid, trimethoprim/sulfamethoxazole and doxycycline. These agents were obtained as laboratory grade powders from their respective manufacturers. Stock solutions were prepared and dilutions made as described by the Clinical Laboratory Standards Institute (2005 CLSI). Following two subcultures from frozen stock the MICs of the antimicrobial agents for the isolates were determined by the CLSI 2005 approved broth macrodilution method. Briefly, test tubes containing doubling antibiotic dilutions (2 ml per tube) of cation adjusted Mueller-Hinton broth (eg. for Enterobacteriaceae) with or without lysed horse blood (2-5% V/V) [eg. for S. pneumoniae] were inoculated to achieve a final concentration of approximately 5×10^5 CFU/ml and incubated in ambient air for 24 hours prior to reading. Colony counts were performed periodically to confirm inocula. Quality control was performed every two weeks using a variety of ATCC QC organisms including; S. aureus 29213, E. faecalis 29212, E. coli 25922 and P. aeruginosa 27853. For all antimicrobials as well as PEP35, CLSI criteria were used.

“LKQKIKHVVKLKVVVKLRSQLVKRKQN (listed as Mus sp.) [PEP35]”: the MIC result against P. mirabilis was “*PEP35 MIC > 4096”. Further, in experiment [1], the “MIC alone, range” value lay in the range of 512 to 1024 µg/mL.

For the origin of these results see patent publication US9751919B2, “Antimicrobial compositions comprising a hyaluronic acid binding peptide and a β-lactam antibiotic” (priority 2012, dated 2017).
